Data from PubChem BioAssay (NCI).
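Cells were grown in 96-well plates and exposed to each compound for 48 hours at five concentrations; endpoints were interpolated linearly between bracketing concentrations, or set to the highest concentration if not reached. At the TGI there is no net growth.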

Key:
Assay in all cases: NCI anticancer screen, dose series, 48 h
ACHN renal = tested on: ACHN renal
CAKI-1 renal = tested on: CAKI-1 renal
DU-145 prostate = tested on: DU-145 prostate
EKVX NSCLC = tested on: EKVX NSCLC
HCT-15 colon = tested on: HCT-15 colon
HT29 colon = tested on: HT29 colon
K-562 leukemia = tested on: K-562 leukemia
LOX IMVI melanoma = tested on: LOX IMVI melanoma
MALME-3M melanoma = tested on: MALME-3M melanoma
MDA-MB-231 breast = tested on: MDA-MB-231 breast
NCI/ADR-RES ovarian = tested on: NCI/ADR-RES ovarian
RPMI-8226 leukemia = tested on: RPMI-8226 leukemia
SF-268 CNS = tested on: SF-268 CNS
SF-295 CNS = tested on: SF-295 CNS
SF-539 CNS = tested on: SF-539 CNS
SNB-75 CNS = tested on: SNB-75 CNS
T-47D breast = tested on: T-47D breast
U251 CNS = tested on: U251 CNS
HCC-2998 colon = tested on: HCC-2998 colon
SK-MEL-5 melanoma = tested on: SK-MEL-5 melanoma

Row | SMILES | TGI (ACHN renal) | TGI (CAKI-1 renal) | TGI (DU-145 prostate) | TGI (EKVX NSCLC) | TGI (HCT-15 colon) | TGI (HT29 colon) | TGI (K-562 leukemia) | TGI (LOX IMVI melanoma) | TGI (MALME-3M melanoma) | TGI (MDA-MB-231 breast) | TGI (NCI/ADR-RES ovarian) | TGI (RPMI-8226 leukemia) | TGI (SF-268 CNS) | TGI (SF-295 CNS) | TGI (SF-539 CNS) | TGI (SNB-75 CNS) | TGI (T-47D breast) | TGI (U251 CNS) | TGI (HCC-2998 colon) | TGI (SK-MEL-5 melanoma)
1 | Nc1cc([N+](=O)[O-])ccc1C(=O)N1CCC[C@H]1CO | > 100 µM | > 100 µM | > 100 µM | > 100 µM | > 100 µM | > 100 µM | > 100 µM | > 100 µM | > 100 µM | > 100 µM | > 100 µM | > 100 µM | > 100 µM | > 100 µM | > 100 µM | > 100 µM | > 100 µM | > 100 µM |  | 
2 | COc1ccc(Cn2c(=O)c(OC)c(C)c3cc4ccccc4cc32)cc1 | > 100 µM | > 100 µM | > 100 µM | 60.3 µM | > 100 µM | > 100 µM | > 100 µM | 41.7 µM | 72.7 µM | > 100 µM | 87.9 µM |  | > 100 µM | > 100 µM | > 100 µM | > 100 µM | > 100 µM | 80.6 µM | 63.5 µM | 22.2 µM
3 | Cc1c(N2C(=O)C(Cl)C2/C=C/c2ccccc2)c(=O)n(-c2ccccc2)n1C (configuration not stated) | 45.6 µM | > 100 µM | > 100 µM | 34.4 µM |  | 56.3 µM | 51.1 µM | 34.5 µM | 25 µM | 72.8 µM | > 100 µM | 34.7 µM | > 100 µM | 48.1 µM | 62.3 µM | 87.3 µM | > 100 µM | 21.1 µM |  | 30 µM
4 | COc1ccc2nc(N/N=C/c3sccc3C)cc(C)c2c1 | 56.2 µM | > 100 µM | 44.5 µM | 55.4 µM | 30.5 µM | 24 µM | > 100 µM | 32.9 µM | 31.3 µM | 16.1 µM | 55.1 µM | 45.3 µM | 47.8 µM | 21.7 µM |  | 37.1 µM | > 100 µM | 73.5 µM | 41.2 µM | 25.5 µM
5 | CC(=O)OCC1OC(N2C(C)=C(C(C)=O)C(c3ccc(Cl)cc3)C(C#N)=C2S)C(OC(C)=O)C(OC(C)=O)C1OC(C)=O (configuration not stated) | > 100 µM | > 100 µM | > 100 µM |  | > 100 µM | > 100 µM | > 100 µM | > 100 µM | > 100 µM | > 100 µM | > 100 µM | > 100 µM | > 100 µM | > 100 µM | > 100 µM | > 100 µM | > 100 µM | > 100 µM | > 100 µM | > 100 µM
6 | Cc1nc2ccc(Br)cc2c(=O)n1-c1nnc(C(C)(C)C)s1 | > 10 µM | > 10 µM | > 10 µM | > 10 µM | > 10 µM | > 10 µM | > 10 µM | > 10 µM |  | > 10 µM | > 10 µM | > 10 µM | > 10 µM | > 10 µM | > 10 µM | > 10 µM | > 10 µM | > 10 µM | > 10 µM | > 10 µM
7 | COC1(OC)N=C(N)C2(C#N)C(c3ccccc3)NC3=C(CCC3)C12C#N (configuration not stated) | > 100 µM | > 100 µM | > 100 µM | > 100 µM | > 100 µM | > 100 µM |  | > 100 µM | > 100 µM | > 100 µM | > 100 µM | > 100 µM | > 100 µM | > 100 µM |  |  | > 100 µM | > 100 µM | > 100 µM | > 100 µM
8 | O=C1/C(=C\c2ccc([N+](=O)[O-])cc2)N(S(=O)(=O)c2ccccc2)c2ncccc21 | 31.4 µM | 20.9 µM | 75.4 µM |  | 32.3 µM | 35 µM | > 100 µM | 47.5 µM | 33 µM | 38.4 µM | 63.3 µM | 41 µM | 70.7 µM | 75.4 µM | 55.5 µM | 43.1 µM | 35 µM | 34.2 µM |  | 31.4 µM
9 | ONC1=Nc2cc(Cl)ccc2C(=S)N2CSCC12 (configuration not stated) | > 100 µM | > 100 µM | > 100 µM | > 100 µM | > 100 µM | > 100 µM | > 100 µM | > 100 µM | > 100 µM | > 100 µM | > 100 µM | > 100 µM | > 100 µM | > 100 µM |  | > 100 µM | > 100 µM | > 100 µM | > 100 µM | > 100 µM
10 | C=C(CCOC)CCC1CCCCC(CN(C)C)C1=O (configuration not stated) | > 100 µM | > 100 µM | > 100 µM | > 100 µM | > 100 µM | > 100 µM | > 100 µM | > 100 µM | > 100 µM | > 100 µM | > 100 µM | > 100 µM | > 100 µM | > 100 µM |  | > 100 µM | > 100 µM | > 100 µM | > 100 µM | > 100 µM
11 | CCOC(=O)c1ccc(N=C/C=C(\Nc2ccc(C(=O)OCC)cc2)C23CC4CC(CC(C4)C2)C3)cc1 | > 100 µM | > 100 µM | > 100 µM | > 100 µM | > 100 µM | > 100 µM | > 100 µM | > 100 µM | > 100 µM | > 100 µM | > 100 µM |  | > 100 µM | > 100 µM | > 100 µM | > 100 µM | > 100 µM | > 100 µM | > 100 µM | > 100 µM
12 | CC(=O)SCCC(NC(=S)Nc1ccccc1)P(=O)(Oc1ccccc1)Oc1ccccc1 (configuration not stated) | > 100 µM | > 100 µM | > 100 µM | > 100 µM | > 100 µM | > 100 µM | > 100 µM | > 100 µM | > 100 µM | > 100 µM | > 100 µM |  | > 100 µM | > 100 µM | > 100 µM | > 100 µM | > 100 µM | > 100 µM | > 100 µM | 
